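Growth conditions: 96-well plates. Treatment: test compound, 48 hours, 5 concentrations. Analysis: linear interpolation between bracketing concentrations; unreached endpoints set to highest concentration. GI50 is the concentration that inhibits growth by half.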 Active and inactive are the calls of the source. Rule as the data show it: active = GI50 up to about 1.1 µM and inactive = higher. Some results are limits rather than exact numbers.

Holding throughout (assay): NCI-60 cell line screen, 48 h
The subject of assay [1] is OVCAR-4.
Assay [2] deals with A549.
The test system of assay [3] is OVCAR-8.
Assay [4] concerns U-251.
For assay [5], the system named is MCF7.
In assay [6] the test system is DU-145.
In assay [7] the test system is MOLT-4.
Assay [8] deals with MDA-N.
The subject of assay [9] is MDA-MB-435.
For assay [10], the system named is OVCAR-3.
Assay [11] relates to HOP-62.
Assay [12] has as its system SN12C.
The subject of assay [13] is TK-10.
Assay [14] deals with HCT-116.
Assay [15] has as its system NCI-H460.
The test system of assay [16] is RXF 393.
Assay [17] has as its system SR.
Assay [18] deals with NCI-H522.
Assay [19] has as its system EKVX.

Turning to `NNC(=O)c1nn[nH]c1C(=O)NN`, the GI50 was > 10 µM (inactive) in assay [1]; > 100 µM (inactive) in assay [2]; > 100 µM (inactive) in assay [3]; > 100 µM (inactive) in assay [4]; > 100 µM (inactive) in assay [5]; > 100 µM (inactive) in [6]. In addition, the GI50 in assay [7], in [8], in assay [9], in [10], in assay [11] and in assay [12] was > 100 µM (inactive) throughout. Also, the GI50 in assay [13], in assay [14], in assay [15], in assay [16] and in assay [17] was > 100 µM (inactive) in each case.

For the molecule `COC(=O)CCC1(C)C2CCC1(C)/C(=N/O)C2` (configuration not stated), the GI50 in assay [1], in assay [2], in assay [3], in [4], in assay [18] and in assay [5] was > 100 µM (inactive) throughout. The GI50 in assay [6], in assay [7], in assay [8], in assay [9], in assay [10] and in [11] was > 100 µM (inactive) each time. Further, the GI50 in assay [12], in assay [13], in assay [14], in assay [19] and in assay [16] was > 100 µM (inactive) in each case.

For `c1cc(-c2csc(-c3ccsc3)c2)cs1`, the GI50 was > 100 µM (inactive) in assay [1]; > 100 µM (inactive) in assay [2]; > 100 µM (inactive) in assay [3]; > 100 µM (inactive) in [4]; 20.3 µM (inactive) in assay [5]; > 100 µM (inactive) in [6]. The GI50 in assay [7] is > 100 µM (inactive); in [8], > 100 µM (inactive); in assay [9] it was > 100 µM (inactive); in assay [10] it was 52.1 µM (inactive); in [11], 71.6 µM (inactive); in assay [12], > 100 µM (inactive). Also, the GI50 in assay [13], in [14], in [15], in [19], in assay [16] and in assay [17] was > 100 µM (inactive) each time.

In the case of `COC1CC(OC2C(C)OC(OC3C(C)OC(OC4C(C)OC(O[C@H]5CC[C@@]6(C)C(=CC[C@]7(O)[C@@H]6C[C@@H](O)[C@@]6(C)[C@]7(O)CC[C@@]6(O)C(C)=O)C5)CC4OC)CC3OC)CC2OC)OC(C)C1O` (some centres not stated), the GI50 in assay [1], in assay [2], in assay [3], in assay [4], in assay [18] and in assay [5] was > 12.5 µM (inactive) throughout. The GI50 in [6], in assay [7], in assay [8], in assay [9], in assay [10] and in [11] was > 12.5 µM (inactive) throughout. For the same molecule, the GI50 in [12], in assay [13], in assay [14], in assay [19] and in assay [17] was > 12.5 µM (inactive) throughout.

Take `N#C/C(N)=C(C#N)/N=C/Nc1ccccc1N`: the GI50 in [1], in [2], in assay [3], in assay [4], in assay [18] and in assay [5] was > 100 µM (inactive) each time. For the same molecule, the GI50 in assay [6], in assay [7], in assay [8], in [9], in assay [10] and in [11] was > 100 µM (inactive) in each case. Also, the GI50 in [12], in [13], in assay [14], in assay [15], in assay [19] and in assay [17] was > 100 µM (inactive) each time.

Regarding `COCCN(CCNC(=O)c1cccc2c(N)c3cccc(C)c3nc12)CCOC`, the GI50 is 0.589 µM (active) in assay [1]; 0.692 µM (active) in assay [2]; 0.807 µM (active) in assay [3]; 3.47 µM (inactive) in assay [4]; 0.165 µM (active) in assay [18]; 0.136 µM (active) in assay [5]. Moreover, the GI50 in assay [6] was 1.28 µM (inactive); in assay [7], 0.144 µM (active); in assay [8], 0.875 µM (active); in assay [9], 1.83 µM (inactive); in [10], 2 µM (inactive); in [11], 0.948 µM (active). Also, the GI50 in assay [12] was 0.582 µM (active); in [13] it was 1.49 µM (inactive); in [14], 0.9 µM (active); in assay [15] it was 0.302 µM (active); in assay [19] it was 1.31 µM (inactive); in [16] it was 1.93 µM (inactive).

As for `CCC#CCCCCCCCCC(F)C(=O)O` (configuration not stated), the GI50 in [1], in assay [2], in assay [3], in [4], in assay [18] and in assay [5] was > 100 µM (inactive) each time. The GI50 in assay [6], in [7], in [8], in [9], in [10] and in assay [11] was > 100 µM (inactive) in each case. The GI50 in assay [12], in [13], in assay [14], in [19] and in [16] was > 100 µM (inactive) each time.

Regarding `COC(=O)NC1C(C)OC(OC2C/C=C(/C)C3C=CC4C(OC5CC(OC6CC(OC7CC(O)C(O)C(C)O7)C(OC7CC(O)C(OC)C(C)O7)C(C)O6)C(O)C(C)O5)C(C)CC(C)C4C3(C)C(=O)C3=C(O)C4(CC(C)C(CO)=CC4/C=C\2C)OC3=O)CC1(C)[N+](=O)[O-]` (configuration not stated), the GI50 in assay [1] is 17.5 µM (inactive); in assay [2] it was 5.04 µM (inactive); in assay [3], 8.57 µM (inactive); in [4], 3.84 µM (inactive); in [18] it was 2.99 µM (inactive); in [5], 11.7 µM (inactive). In addition, the GI50 was 6.73 µM (inactive) in [6]; 6.15 µM (inactive) in assay [7]; 14 µM (inactive) in assay [8]; 9.64 µM (inactive) in assay [9]; 3.38 µM (inactive) in [11]; 11.7 µM (inactive) in assay [12]. Also, the GI50 in [13] is 16.6 µM (inactive); in [14], 1.59 µM (inactive); in assay [15] it was 2.06 µM (inactive); in assay [19], 14.4 µM (inactive); in assay [17], 2.71 µM (inactive).

Turning to `[N-]=[N+]=NC(c1cn(C2CC(O)C(CO)O2)c(=O)[nH]c1=O)C(Cl)I` (configuration not stated), the GI50 in assay [1], in [2], in [3], in [4], in assay [5] and in [6] was > 100 µM (inactive) each time. For the same molecule, the GI50 in assay [7], in assay [8], in [9], in assay [10], in [11] and in assay [12] was > 100 µM (inactive) in each case. In addition, the GI50 in assay [13], in [14], in assay [15], in assay [19] and in assay [16] was > 100 µM (inactive) throughout.

Take `CC(C)NC(NC(C)C)=C(S(=O)(=O)C(F)(F)C(F)(F)C(F)(F)C(F)(F)F)S(=O)(=O)C(F)(F)C(F)(F)C(F)(F)C(F)(F)F`: the GI50 in assay [1], in assay [2], in [3], in assay [4], in [18] and in assay [5] was > 100 µM (inactive) each time. For the same molecule, the GI50 in assay [6], in [7], in [8], in assay [9], in [10] and in assay [11] was > 100 µM (inactive) throughout. The GI50 in assay [12], in assay [13], in assay [14], in assay [15], in assay [19] and in assay [17] was > 100 µM (inactive) throughout.

As to `Cc1ccn2c(=O)cc(CN3CCOCC3)nc2c1`, the GI50 in [1], in assay [2], in assay [3], in assay [4], in assay [18] and in [5] was > 100 µM (inactive) each time. Moreover, the GI50 in assay [6], in [7], in [8], in [9], in [10] and in assay [11] was > 100 µM (inactive) each time. The GI50 in [12], in assay [13], in assay [14], in [15], in assay [19] and in assay [17] was > 100 µM (inactive) throughout.

(Values after ChEMBL document CHEMBL1201862, “PubChem BioAssay data set” (2004).)
